From patent US12543736B2, “Herbicidal compositions comprising mesotrione” (BASF SE, priority 2024, dated 2026)

How the values were obtained:
Format in all cases: in vivo
Eleusine indica = experiment: Example 1 post-emergence greenhouse trial, ELEIN; conditions: growth stage 14, 21 DAT
Description: (§1) In the examples below, using the method of S. R. Colby (1967) “Calculating synergistic and antagonistic responses of herbicide combinations”, Weeds 15, p. 22ff., the value E, which is expected if the activity of the individual active compounds is only additive, was calculated: [formula] • where • X=percent activity using active herbicide A at an application rate a; • Y=percent activity using active herbicide B (e.g. mesotrione) at an application rate b; • E=expected activity (in %) by A+B at application rates a+b. If the value found experimentally is higher than the value E calculated according to Colby, a synergistic effect is present. The culture containers used were plastic pots containing loamy sand with approximately 3.0% of humus as substrate. The seeds of the test plants were sown separately for each species. For the post-emergence treatment, the test plants were grown to a plant height of from 3 to 15 cm, depending on the plant habit, and only then treated with the active compounds which had been suspended or emulsified in water. To this end, the test plants were either sown directly, and grown in the same containers, or they were first grown separately as seedlings and transplanted into the test containers a few days prior to treatment. Depending on the species, the plants were kept at 10-25° C. and 20-35° C., respectively. The test period extended over 2 to 4 weeks. During this time, the plants were tended and their response to the individual treatments was evaluated. Evaluation was carried out using a scale from 0 to 100. 100 means no emergence of the plants, or complete destruction of at least the above-ground parts, and 0 means no damage or normal course of growth. A good herbicidal activity is given at values of at least 70, and very good herbicidal activity is given at values of at least 85. Post-Emergence Application of Herbicide A-1 (A-1) and Mesotrione (B) in Greenhouse Trials Herbicide A-1 (50 g/l) and mesotrione (480 g/l) were, together with addition of 1 v/v % MSO (methylated sed oil) as adjuvant, formulated in water as distribution medium (water volume 200 l/ha) and sprayed with commercial flat fan nozzles.

Erigeron canadensis = experiment: Example 1 post-emergence greenhouse trial, ERICA; conditions: growth stage 18, 21 DAT
Description: as §1

Panicum dichotomiflorum = experiment: Example 1 post-emergence greenhouse trial, PANDI; conditions: growth stage 13, 21 DAT, g ai/ha: A-1 4, B 62.5
Description: In the examples below, using the method of S. R. Colby (1967) “Calculating synergistic and antagonistic responses of herbicide combinations”, Weeds 15, p. 22ff., the value E, which is expected if the activity of the individual active compounds is only additive, was calculated: [formula] • where • X=percent activity using active herbicide A at an application rate a; • Y=percent activity using active herbicide B (e.g. mesotrione) at an application rate b; • E=expected activity (in %) by A+B at application rates a+b. If the value found experimentally is higher than the value E calculated according to Colby, a synergistic effect is present. The culture containers used were plastic pots containing loamy sand with approximately 3.0% of humus as substrate. The seeds of the test plants were sown separately for each species. For the post-emergence treatment, the test plants were grown to a plant height of from 3 to 15 cm, depending on the plant habit, and only then treated with the active compounds which had been suspended or emulsified in water. To this end, the test plants were either sown directly, and grown in the same containers, or they were first grown separately as seedlings and transplanted into the test containers a few days prior to treatment. […] During this time, the plants were tended and their response to the individual treatments was evaluated. […]

Avena fatua = experiment: Example 2 post-emergence greenhouse trial, AVEFA
Description: (§2) In the examples below, using the method of S. R. Colby (1967) “Calculating synergistic and antagonistic responses of herbicide combinations”, Weeds 15, p. 22ff., the value E, which is expected if the activity of the individual active compounds is only additive, was calculated: [formula] • where • X=percent activity using active herbicide A at an application rate a; • Y=percent activity using active herbicide B (e.g. mesotrione) at an application rate b; • E=expected activity (in %) by A+B at application rates a+b. If the value found experimentally is higher than the value E calculated according to Colby, a synergistic effect is present. The culture containers used were plastic pots containing loamy sand with approximately 3.0% of humus as substrate. The seeds of the test plants were sown separately for each species. For the post-emergence treatment, the test plants were grown to a plant height of from 3 to 15 cm, depending on the plant habit, and only then treated with the active compounds which had been suspended or emulsified in water. To this end, the test plants were either sown directly, and grown in the same containers, or they were first grown separately as seedlings and transplanted into the test containers a few days prior to treatment. Depending on the species, the plants were kept at 10-25° C. and 20-35° C., respectively. The test period extended over 2 to 4 weeks. During this time, the plants were tended and their response to the individual treatments was evaluated. Evaluation was carried out using a scale from 0 to 100. 100 means no emergence of the plants, or complete destruction of at least the above-ground parts, and 0 means no damage or normal course of growth. A good herbicidal activity is given at values of at least 70, and very good herbicidal activity is given at values of at least 85. Post-Emergence Application of Herbicide A-1 (A-1) and Mesotrione (B) in Greenhouse Trials Herbicide A-1 (342 g/l) and mesotrione (480 g/l) were, together with addition of 0.5 v/v % MSO (methylated sed oil) as adjuvant, formulated in water as distribution medium (water volume 200 l/ha) and sprayed with commercial flat fan nozzles.

Digitaria sanguinalis = experiment: Example 2 post-emergence greenhouse trial, DIGSA; conditions: growth stage 12, 7 DAT
Description: as §2

Commelina benghalensis = experiment: Example 4 post-emergence application A-1, B and C-19, COMBE; conditions: growth stage 13, 21 DAT, g ai/ha: A-1 1, B 50, C-19 30
Description: In the examples below, using the method of S. R. Colby (1967) “Calculating synergistic and antagonistic responses of herbicide combinations”, Weeds 15, p. 22ff., the value E, which is expected if the activity of the individual active compounds is only additive, was calculated:
[formula] • where • X=percent activity using active herbicide A at an application rate a; • Y=percent activity using active herbicide B (e.g. mesotrione) at an application rate b; • E=expected activity (in %) by A+B at application rates a+b.
If the value found experimentally is higher than the value E calculated according to Colby, a synergistic effect is present.
Evaluation was carried out using a scale from 0 to 100. 100 means no emergence of the plants, or complete destruction of at least the above-ground parts, and 0 means no damage or normal course of growth. A good herbicidal activity is given at values of at least 70, and very good herbicidal activity is given at values of at least 85.
Post-Emergence Application of Herbicide A-1 (A-1), Mesotrione (B) and Pyroxasulfone (C-19)
Herbicide A-1 (342 g/l), mesotrione (100 g/l) and pyroxasulfone (500 g/l) were, together with addition of 0.5 v/v % MSO (methylated sed oil) as adjuvant, formulated in water as distribution medium (water volume 200 l/ha) and sprayed with commercial flat fan nozzles.

[1] = growth stage 11, 7 DAT, g ai/ha: A-1 1, B 50
[2] = growth stage 11, 20 DAT, g ai/ha: A-1 1, B 50
[3] = growth stage 11, 20 DAT, g ai/ha: A-1 1, B 100

| Structure (SMILES) | % herbicidal activity (Eleusine indica; g ai/ha: A-1 2, B 62.5) | % herbicidal activity (Eleusine indica; g ai/ha: A-1 4, B 62.5) | % herbicidal activity (Erigeron canadensis; g ai/ha: A-1 0.5, B 62.5) | % herbicidal activity (Erigeron canadensis; g ai/ha: A-1 1, B 62.5) | % herbicidal activity (Panicum dichotomiflorum) | % herbicidal activity (Avena fatua; [1]) | % herbicidal activity (Avena fatua; [2]) | % herbicidal activity (Avena fatua; [3]) | % herbicidal activity (Digitaria sanguinalis; g ai/ha: A-1 0.25, B 50) | % herbicidal activity (Digitaria sanguinalis; g ai/ha: A-1 0.25, B 100) | % herbicidal activity (Digitaria sanguinalis; g ai/ha: A-1 0.5, B 50) | % herbicidal activity (Commelina benghalensis) |
| --- | --- | --- | --- | --- | --- | --- | --- | --- | --- | --- | --- | --- |
| CCOC(=O)COc1ccccc1Oc1nc(-n2c(=O)cc(C(F)(F)F)n(C)c2=O)c(F)cc1Cl [A-1, ethyl 2-[2-[[3-chloro-5-fluoro-6-[3-methyl-2,6-dioxo-4-(trifluoromethyl)pyrimidin-1-yl]-2-pyridyl]oxy]phenoxy]acetate] | 95% | 95% | 60% | 80% | 95% | 70% | 35% | 35% | 30% | 30% | 80% | 80% |
| CS(=O)(=O)c1ccc(C(=O)C2C(=O)CCCC2=O)c([N+](=O)[O-])c1 [B, mesotrione] | 50% | 50% | 65% | 65% | 0% | 15% | 15% | 15% | 70% | 80% | 70% | 90% |
